Experimental data: article PMC11212140, “Molecular Bidents with Two Electrophilic Warheads as a New Pharmacological Modality” (ACS Central Science, 2024)
Where two headings read alike, the source gives them in different places.

Key:
CDK11, CDK8 = test: KiNativ profiling in H3255 cells; format: cell-based, human; conditions: 2.5 µM; Lys2; DLKPANILVMGEGPER
CDK7 = test system: T1, CDK7; test: KiNativ profiling in H3255 cells; format: cell-based, human; conditions: 2.5 µM
T1 construct: purchased ActivX Biosciences (KiNativ)
Summary of the method: (§1)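 Cellular target engagement in H3255: cells seeded at 6.5x10^6 per condition received either DMSO or ZNL-0056 (2.5 μM) for 2 h before cold harvest, centrifugation at 4 ℃ and snap freezing for KiNativ analysis.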

CDKL3 = test system: T2, CDKL3; test: KiNativ profiling in H3255 cells; format: cell-based, human; conditions: 2.5 µM; Lys2; DIKPENILVSQSGITK
T2 construct: purchased ActivX Biosciences (KiNativ)
Summary of the method: as §1

EGFR, EGFR-L858R = test system: T3, EGFR, EGFR-L858R; test: KiNativ profiling in H3255 cells; format: cell-based, human; conditions: 2.5 µM
T3 construct: purchased ActivX Biosciences (KiNativ)
Summary of the method: as §1

MAP3K3 = test system: T4, MAP3K3; test: KiNativ profiling in H3255 cells; format: cell-based, human; conditions: 2.5 µM; Lys1; ELASKQVQFDPDSPETSKEVSALECEIQLLK
T4 construct: purchased ActivX Biosciences (KiNativ)
Summary of the method: as §1

MASTL = test system: T5, MASTL; test: KiNativ profiling in H3255 cells; format: cell-based, human; conditions: 2.5 µM
T5 construct: purchased ActivX Biosciences (KiNativ)
Summary of the method: as §1

NuaK1 = test system: T6, NuaK1; test: KiNativ profiling in H3255 cells; format: cell-based, human; conditions: 2.5 µM; Lys1; VVAIKSIR
T6 construct: purchased ActivX Biosciences (KiNativ)
Summary of the method: as §1

PIP5K3 = test system: T7, PIP5K3; test: KiNativ profiling in H3255 cells; format: cell-based, human; conditions: 2.5 µM; ATP; GGKSGAAFYATEDDRFILK
T7 construct: purchased ActivX Biosciences (KiNativ)
Summary of the method: as §1

PITSLRE = test system: T8, PITSLRE; test: KiNativ profiling in H3255 cells; format: cell-based, human; conditions: 2.5 µM; Lys2; DLKTSNLLLSHAGILK
T8 construct: purchased ActivX Biosciences (KiNativ)
Summary of the method: as §1

PLK1 = test system: T9, PLK1; test: KiNativ profiling in H3255 cells; format: cell-based, human; conditions: 2.5 µM
T9 construct: purchased ActivX Biosciences (KiNativ)
Summary of the method: as §1

ROCK1, ROCK2 = test: KiNativ profiling in H3255 cells; format: cell-based, human; conditions: 2.5 µM; Lys2; DVKPDNMLLDK
Summary of the method: as §1

SLK = test system: T10, SLK; test: KiNativ profiling in H3255 cells; format: cell-based, human; conditions: 2.5 µM
T10 construct: purchased ActivX Biosciences (KiNativ)
Summary of the method: as §1

TAO2 = test system: T11, TAO2; test: KiNativ profiling in H3255 cells; format: cell-based, human; conditions: 2.5 µM; Lys2; DVKAGNILLSEPGLVK
T11 construct: purchased ActivX Biosciences (KiNativ)
Summary of the method: as §1

VRK2 = test system: T12, VRK2; test: KiNativ profiling in H3255 cells; format: cell-based, human; conditions: 2.5 µM; Lys2; MLDVLEYIHENEYVHGDIKAANLLLGYK
T12 construct: purchased ActivX Biosciences (KiNativ)
Summary of the method: as §1

IKKb = test system: T13, IKKb; test: KiNativ profiling in H3255 cells; format: cell-based, human; conditions: 2.5 µM
T13 construct: purchased ActivX Biosciences (KiNativ)

JAK1 domain2 = test system: T14, JAK1 domain2; test: KiNativ profiling in H3255 cells; format: cell-based, human; conditions: 2.5 µM
T14 construct: JAK1 domain2; purchased ActivX Biosciences (KiNativ)

LKB1 = test system: T15, LKB1; test: KiNativ profiling in H3255 cells; format: cell-based, human; conditions: 2.5 µM; Lys2; DIKPGNLLLTTGGTLK
T15 construct: purchased ActivX Biosciences (KiNativ)

[1] = test system: EGFR^L858R/C797S Ba/F3 cells; test: Antiproliferation assay (CellTiter-Glo); format: cell-based
From the text: (1 picture or pasted object on this page, not shown here)
protease and phosphatase inhibitors.
Protein expression and purification

[2] = Activation Loop, IGDFGLTKAIETDKEYYTVK
[3] = Lys1, YDPEGDNTGEQVAVKSLKPESGGNHIADLKK

Row | Structure (SMILES) | Inhibition (CDK11, CDK8) | Inhibition (CDK7; Lys1, DKNTNQIVAIKK) | Inhibition (CDK7; Lys2, DLKPNNLLLDENGVLK) | Inhibition (CDKL3) | Inhibition (EGFR, EGFR-L858R; Lys1, IPVAIKELR) | Inhibition (MAP3K3) | Inhibition (MASTL; ATP Loop, GAFGKVYLGQK) | Inhibition (MASTL; Lys1, LYAVKVVK) | Inhibition (NuaK1) | Inhibition (PIP5K3) | Inhibition (PITSLRE) | Inhibition (PLK1; Lys1, CFEISDADTKEVFAGKIVPK) | Inhibition (PLK1; Lys2, DLKLGNLFLNEDLEVK) | Inhibition (ROCK1, ROCK2) | Inhibition (SLK; Lys1, AQNKETSVLAAAKVIDTK) | Inhibition (SLK; Lys2, DLKAGNILFTLDGDIK) | Inhibition (TAO2) | Inhibition (VRK2) | Inhibition (IKKb; Lys1, WHNQETGEQIAIKQCR) | Inhibition (IKKb; Lys2, DLKPENIVLQQGEQR) | further results
1 | C=CC(=O)Nc1cc(C(=O)Nc2nc3cccc(C)c3n2[C@@H]2CCCCN(C(=O)C=C)C2)cs1 [ZNL-0056] | -0.339% | -17.3% | -3.1% | -6.0% | 94.3% | -6.3% | 13.0% | 16.2% | 17.0% | 20.7% | 20.7% | 11.9% | -1.2% | -10.4% | -4.8% | -22.3% | -4.5% | 7.9% | 11.2% | 2.0% | Inhibition (EGFR, EGFR-L858R; Activation Loop, LLGAEEKEYHAEGGKVPIK): 83.2%; Inhibition (JAK1 domain2; [2]): 4.7%; Inhibition (JAK1 domain2; [3]): 4.4%; Inhibition (LKB1): 0.756%; activity loss in cells dependent on EGFR^C797S for growth ([1]; vs EGFR^L858R Ba/F3): 50 fold
2 | C=CC(=O)Nc1cc(Nc2nccc(-c3cn(C)c4ccccc34)n2)c(OC)cc1N(C)CCN(C)C [Osimertinib, osimertinib, reference compound] | 24.8% | 34.0% | 14.2% | 4.6% | 96.8% | 10.8% | 16.6% | 23.8% | 2.8% | 49.0% | -3.8% | 9.6% | 25.0% | -1.6% | -11.7% | 8.3% | 8.2% | 6.4% | -16.0% | -28.9% | Inhibition (EGFR, EGFR-L858R; Activation Loop, […]): 90.8%; Inhibition (JAK1 domain2; [2]): -24.5%; Inhibition (JAK1 domain2; [3]): -22.2%; Inhibition (LKB1): -3.9%; activity loss in cells dependent on EGFR^C797S for growth [1]: 300 fold
